The text below walks through data of patent publication US9096593B2, “Compounds and methods for kinase modulation, and indications therefor” (Plexxikon Inc., priority 2009, dated 2015).

Data set [1] in a line: Turbidity assay of relative solubility in aqueous buffers. It counts as physicochemical. The note with it: for turbidity threshold (L, M, H) 1.4: pH 1.4 as headed (method: SGF pH 1.5); for turbidity threshold (L, M, H) 4.5: pH 4.5 (SIF); for turbidity threshold (L, M, H) 6.8: pH 6.8 (SIF); for turbidity threshold (L, M, H) 7.4: pH 7.4 (HEPES). Put shortly: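 DMSO stocks (25 mM) were serially diluted 1:1 and spiked into SGF pH 1.5 (0.5M NaCl), SIF pH 4.5 and 6.8 (0.05M NaH2PO4) or HEPES pH 7.4 (10 mM HEPES, 150 mM NaCl). Absorbance was read at 490, 535 and 650 nm. Value is the concentration crossing OD 0.01, averaged over the three wavelengths.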

For data set [2], the target named is CYP1A2 (Homo sapiens (Human), UniProt P05177). Put plainly: CYP enzyme inhibition, fluorescent substrate. Particulars: human, 15 min. How it is done: (§1) CYP (Cytochrome P450) enzymes are the major drug metabolizing enzymes present in the liver. The inhibition of CYP enzyme activity (IC50) for each of CYP1A2, CYP2C19, CYP2C9, CYP2D6, CYP3A4(BFC) and CYP3A4(BQ) is determined for compounds, where inhibition of metabolism of a known substrate leads to a decrease in the fluorescence of the metabolized product. The fluorescence of the product is monitored as a function of compound concentration.
CYP1A2, sequence (P05177 whole entry): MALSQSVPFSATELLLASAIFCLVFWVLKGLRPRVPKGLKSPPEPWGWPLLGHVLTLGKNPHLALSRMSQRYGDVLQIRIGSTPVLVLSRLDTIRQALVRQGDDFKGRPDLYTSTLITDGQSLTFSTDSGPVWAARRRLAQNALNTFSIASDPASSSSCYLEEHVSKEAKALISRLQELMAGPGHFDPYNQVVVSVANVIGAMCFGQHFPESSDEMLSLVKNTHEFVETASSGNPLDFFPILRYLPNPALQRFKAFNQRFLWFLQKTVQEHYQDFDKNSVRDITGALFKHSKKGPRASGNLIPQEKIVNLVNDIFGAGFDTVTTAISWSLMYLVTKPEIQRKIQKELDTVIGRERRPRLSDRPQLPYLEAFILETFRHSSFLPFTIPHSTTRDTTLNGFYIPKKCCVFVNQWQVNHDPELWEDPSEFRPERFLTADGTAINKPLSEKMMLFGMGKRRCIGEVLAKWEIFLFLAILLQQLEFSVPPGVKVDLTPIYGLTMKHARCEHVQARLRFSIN
(§2) Compounds are dissolved in DMSO to a concentration of 100 mM. These are diluted 1 μL into 82 μL of acetonitrile. An 11 μL aliquot of this solution is then added to 204 μL of cofactor mix (1.3% NADPH Regeneration system Solution A, 1.04% NADPH Regeneration system Solution B from BD Biosciences, 5% acetonitrile and 0.05% DMSO). These are then serially diluted 1:1 (160 μL to 160 μL co-factor mix) for a total of 10 points. A 10 μL aliquot of this final mixture is dispensed into 384 well assay plates and incubated for 10 minutes at 37° C. Enzyme and substrate mix (10 μL; […] CYP1A2/5 μM CEC; 1.0 μmol CYP2C9/75 μM MFC; […] CYP2C19/25 μM CEC; 1.5 μmol CYP2D6/1.5 μM AMMC; 1.0 μmol CYP3A4/50 μM BFC; or 1.0 μmol CYP3A4/40 μM BQ) is added to these assay plates. Assay plates are incubated at 37° C. (CYP1A2-15 min; CYP2C9-45 min; CYP2C19, 2D6 and 3A4-30 min) and read in a Tecan Safire 2 plate reader (CYP1A2, 2C19 and 3A4 409 ex/460 em; CYP2C9 and 2D6409 ex/530 em). The signal versus compound concentration is used to determine the IC50. The enzymes and substrates for this assay are obtained from BD Biosciences.

Data set [3] concerns the target CYP2C19 (Homo sapiens (Human), UniProt P33261). The data set can be described thus: CYP enzyme inhibition, fluorescent substrate. As to the method: as §1, §2
Data set [4] addresses CYP2C9 (Homo sapiens (Human), UniProt P11712). The data set can be described thus: CYP enzyme inhibition, fluorescent substrate. How it is done: as §1, §2
Data set [5] addresses CYP2D6 (Homo sapiens (Human), UniProt P10635). The data set can be described thus: CYP enzyme inhibition, fluorescent substrate. The note with it: read-out: Cyp IC50 (μM) 2D6. How it is done: as §1, §2
The target in data set [6] is CYP3A4(BFC) (Homo sapiens (Human), UniProt P08684). The data set can be described thus: CYP enzyme inhibition, fluorescent substrate. How it is done: as §1, §2
CYP3A4(BFC), sequence (P08684 whole entry): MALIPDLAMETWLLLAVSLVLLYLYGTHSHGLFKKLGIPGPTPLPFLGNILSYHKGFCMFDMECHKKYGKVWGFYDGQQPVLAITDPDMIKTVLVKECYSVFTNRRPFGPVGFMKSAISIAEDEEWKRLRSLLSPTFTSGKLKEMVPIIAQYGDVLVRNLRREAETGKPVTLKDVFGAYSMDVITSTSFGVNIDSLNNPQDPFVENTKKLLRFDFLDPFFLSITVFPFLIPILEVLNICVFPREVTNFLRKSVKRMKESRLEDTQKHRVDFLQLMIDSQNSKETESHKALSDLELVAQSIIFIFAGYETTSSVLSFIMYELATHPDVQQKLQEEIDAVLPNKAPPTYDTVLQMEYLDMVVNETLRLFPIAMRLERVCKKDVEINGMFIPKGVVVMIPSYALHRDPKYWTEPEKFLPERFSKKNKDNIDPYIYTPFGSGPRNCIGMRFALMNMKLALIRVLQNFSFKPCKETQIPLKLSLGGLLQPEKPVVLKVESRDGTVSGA
In data set [7] the target is CYP3A4(BQ) (Homo sapiens (Human), UniProt P08684). The data set can be described thus: CYP enzyme inhibition, fluorescent substrate. As to the method: as §1, §2
CYP3A4(BQ), sequence (P08684 whole entry): as above
Setting [8] is: read-out: Cyp IC50 (μM) 3A4(BFC), BFC substrate.
The mark [9] stands for this setting: read-out: Cyp IC50 (μM) 3A4(BQ), BQ substrate.

Where two headings read alike, the source gives them in different places.

CYP2C9, sequence (P11712 whole entry): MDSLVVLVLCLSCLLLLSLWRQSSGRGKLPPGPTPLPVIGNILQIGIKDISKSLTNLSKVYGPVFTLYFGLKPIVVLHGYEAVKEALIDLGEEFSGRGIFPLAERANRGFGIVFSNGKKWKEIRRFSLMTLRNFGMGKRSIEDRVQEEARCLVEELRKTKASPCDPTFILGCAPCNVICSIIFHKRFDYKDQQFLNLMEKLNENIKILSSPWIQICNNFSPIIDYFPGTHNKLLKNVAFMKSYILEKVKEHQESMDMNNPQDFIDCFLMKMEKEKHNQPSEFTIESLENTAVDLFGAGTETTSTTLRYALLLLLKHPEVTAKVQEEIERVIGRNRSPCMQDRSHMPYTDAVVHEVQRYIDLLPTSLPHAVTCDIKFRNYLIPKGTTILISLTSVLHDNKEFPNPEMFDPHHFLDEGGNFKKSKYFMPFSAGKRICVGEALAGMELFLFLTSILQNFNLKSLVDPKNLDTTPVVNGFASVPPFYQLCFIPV
CYP2D6, sequence (P10635 whole entry): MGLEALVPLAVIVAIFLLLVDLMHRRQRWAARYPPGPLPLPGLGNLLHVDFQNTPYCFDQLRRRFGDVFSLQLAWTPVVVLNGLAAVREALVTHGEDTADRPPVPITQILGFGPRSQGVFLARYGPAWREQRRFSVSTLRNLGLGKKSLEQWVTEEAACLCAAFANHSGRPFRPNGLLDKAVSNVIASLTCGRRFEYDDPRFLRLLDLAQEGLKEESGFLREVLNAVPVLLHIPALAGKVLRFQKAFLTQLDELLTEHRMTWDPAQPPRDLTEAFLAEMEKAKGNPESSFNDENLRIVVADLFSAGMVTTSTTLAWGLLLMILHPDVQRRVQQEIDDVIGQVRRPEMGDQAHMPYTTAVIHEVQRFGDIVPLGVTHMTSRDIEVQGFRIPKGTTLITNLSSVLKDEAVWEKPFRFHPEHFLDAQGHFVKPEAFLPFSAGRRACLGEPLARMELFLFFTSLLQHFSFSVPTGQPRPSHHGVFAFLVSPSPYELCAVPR
CYP2C19, sequence (P33261 whole entry): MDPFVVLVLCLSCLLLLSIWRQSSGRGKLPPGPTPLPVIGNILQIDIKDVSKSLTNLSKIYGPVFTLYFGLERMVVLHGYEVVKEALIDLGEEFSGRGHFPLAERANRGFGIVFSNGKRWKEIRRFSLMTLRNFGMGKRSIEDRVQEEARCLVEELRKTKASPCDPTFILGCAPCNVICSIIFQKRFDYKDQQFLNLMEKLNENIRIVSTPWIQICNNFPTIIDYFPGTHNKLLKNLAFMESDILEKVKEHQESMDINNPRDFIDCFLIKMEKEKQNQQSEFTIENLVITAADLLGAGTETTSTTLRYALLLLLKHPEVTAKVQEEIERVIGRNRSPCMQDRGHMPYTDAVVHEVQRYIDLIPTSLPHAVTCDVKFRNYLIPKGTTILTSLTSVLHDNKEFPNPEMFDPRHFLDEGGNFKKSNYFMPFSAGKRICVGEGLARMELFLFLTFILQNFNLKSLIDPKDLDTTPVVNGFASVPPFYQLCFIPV

As to `COc1ncc(F)cc1CNc1ccc(Cc2c[nH]c3ncc(NC(C)=O)cc23)c(F)n1` [Compound P-1669, N-(3-{2-fluoro-6-[(5-fluoro-2-methoxy-pyridin-3-ylmethyl)-amino]-pyridin-3-ylmethyl}-1H-pyrrolo[2,3-b]pyridin-5-yl)-acetamide], in data set [1], the “turbidity threshold (L, M, H) 1.4” value is “M (moderate solubility if the threshold concentration is 31.3 μM to 250 μM)”. Also, in data set [1], the “turbidity threshold (L, M, H) 4.5” value was “M (moderate solubility if the threshold concentration is 31.3 μM to 250 μM)”. Moreover, in data set [1], the “turbidity threshold (L, M, H) 6.8” value is recorded as “M (moderate solubility if the threshold concentration is 31.3 μM to 250 μM)”. Further, the “turbidity threshold (L, M, H) 7.4” value in data set [1] is on record as “M (moderate solubility if the threshold concentration is 31.3 μM to 250 μM)”. The IC50 in data set [2] was over 10 µM; in data set [3] (read-out: Cyp IC50 (μM) 2C19), over 10 µM; in data set [4] (read-out: Cyp IC50 (μM) 2C9), under 5 µM; in data set [5] it was over 10 µM; in data set [6], 5 to 10 µM.

On to `COc1cnc2[nH]cc(Cc3ccc(NCc4cncc(F)c4)nc3F)c2c1` [Compound P-2028, [6-Fluoro-5-(5-methoxy-1H-pyrrolo[2,3-b]pyridin-3-ylmethyl)-pyridin-2-yl]-(5-fluoro-pyridin-3-ylmethyl)-amine], for which, in data set [1], the “turbidity threshold (L, M, H) 1.4” value is “H (high solubility if the threshold concentration is >250 μM)”. In addition, the “turbidity threshold (L, M, H) 4.5” value in data set [1] was “M (moderate solubility if the threshold concentration is 31.3 μM to 250 μM)”. For the same molecule, the “turbidity threshold (L, M, H) 6.8” value in data set [1] is given as “M (moderate solubility if the threshold concentration is 31.3 μM to 250 μM)”. Besides, in data set [1], the “turbidity threshold (L, M, H) 7.4” value is given as “M (moderate solubility if the threshold concentration is 31.3 μM to 250 μM)”. Also, the IC50 in data set [2] was over 10 µM; in data set [3] (read-out: Cyp IC50 (μM) 2C19) it was over 10 µM; in data set [4] (read-out: Cyp IC50 (μM) 2C9) it was under 5 µM; in data set [6] (setting [8]), under 5 µM; in data set [7] (setting [9]), under 5 µM.

As to `COc1ncccc1CNc1ccc(Cc2c[nH]c3ncccc23)c(F)n1` [Compound P-2045, [6-Fluoro-5-(1H-pyrrolo[2,3-b]pyridin-3-ylmethyl)-pyridin-2-yl]-(2-methoxy-pyridin-3-ylmethyl)-amine], in data set [1], the “turbidity threshold (L, M, H) 1.4” value is listed as “H (high solubility if the threshold concentration is >250 μM)”. Besides, in data set [1], the “turbidity threshold (L, M, H) 4.5” value is “M (moderate solubility if the threshold concentration is 31.3 μM to 250 μM)”. Besides, the “turbidity threshold (L, M, H) 6.8” value in data set [1] is “M (moderate solubility if the threshold concentration is 31.3 μM to 250 μM)”. Besides, the “turbidity threshold (L, M, H) 7.4” value in data set [1] was “M (moderate solubility if the threshold concentration is 31.3 μM to 250 μM)”. Also, the IC50 is over 10 µM in data set [2]; 5 to 10 µM in data set [3]; over 10 µM in data set [4] (read-out: Cyp IC50 (μM) 2C9); 5 to 10 µM in data set [6]; over 10 µM in data set [7] (setting [9]).

With `FC(F)(F)c1ccncc1CNc1ccc(Cc2c[nH]c3ncc(Cl)cc23)cn1` [Compound P-2063, [5-(5-Chloro-1H-pyrrolo[2,3-b]pyridin-3-ylmethyl)-pyridin-2-yl]-(4-trifluoromethyl-pyridin-3-ylmethyl)-amine], the IC50 was over 10 µM in data set [2]; 5 to 10 µM in data set [3]; over 10 µM in data set [4] (read-out: Cyp IC50 (μM) 2C9); over 10 µM in data set [5]; 5 to 10 µM in data set [6]; 5 to 10 µM in data set [7].

For the molecule `COc1cc(CNc2ccc(Cc3c[nH]c4ncc(C)cc34)c(F)n2)c(F)cn1` [Compound P-2071, (5-Fluoro-2-methoxy-pyridin-4-ylmethyl)-[6-fluoro-5-(5-methyl-1H-pyrrolo[2,3-b]pyridin-3-ylmethyl)-pyridin-2-yl]-amine], in data set [1], the “turbidity threshold (L, M, H) 1.4” value is “M (moderate solubility if the threshold concentration is 31.3 μM to 250 μM)”. Further, in data set [1], the “turbidity threshold (L, M, H) 4.5” value is “L (low solubility if the threshold concentration is <31.3 μM)”. Moreover, the “turbidity threshold (L, M, H) 6.8” value in data set [1] is given as “L (low solubility if the threshold concentration is <31.3 μM)”. Further, the “turbidity threshold (L, M, H) 7.4” value in data set [1] is “L (low solubility if the threshold concentration is <31.3 μM)”. In addition, the IC50 in data set [2] is over 10 µM; in data set [3] (read-out: Cyp IC50 (μM) 2C19), over 10 µM; in data set [4], 5 to 10 µM; in data set [6], 5 to 10 µM; in data set [7], 5 to 10 µM.

On to `Cc1cnc2[nH]cc(Cc3cnc(NCc4cccc(C)n4)nc3)c2c1` [Compound P-2079, (6-Methyl-pyridin-2-ylmethyl)-[5-(5-methyl-1H-pyrrolo[2,3-b]pyridin-3-ylmethyl)-pyrimidin-2-yl]-amine], for which the IC50 in data set [2] was over 10 µM; in data set [3], 5 to 10 µM; in data set [4], 5 to 10 µM; in data set [5], over 10 µM; in data set [6] (setting [8]) it was under 5 µM; in data set [7], 5 to 10 µM.

Regarding `Cc1cnc2[nH]cc(Cc3cnc(NCc4cccc(N5CCOCC5)n4)nc3)c2c1` [Compound P-2081, [5-(5-Methyl-1H-pyrrolo[2,3-b]pyridin-3-ylmethyl)-pyrimidin-2-yl]-(6-morpholin-4-yl-pyridin-2-ylmethyl)-amine], the IC50 in data set [2] was over 10 µM; in data set [3] (read-out: Cyp IC50 (μM) 2C19), under 5 µM; in data set [4] (read-out: Cyp IC50 (μM) 2C9) it was under 5 µM; in data set [5], over 10 µM; in data set [6] (setting [8]), under 5 µM; in data set [7] it was 5 to 10 µM.

For `Cc1cnc2[nH]cc(Cc3cnc(NCc4cccc(N5CCCC5)n4)nc3)c2c1` [Compound P-2082, [5-(5-Methyl-1H-pyrrolo[2,3-b]pyridin-3-ylmethyl)-pyrimidin-2-yl]-(6-pyrrolidin-1-yl-pyridin-2-ylmethyl)-amine], the IC50 was over 10 µM in data set [2]; under 5 µM in data set [3] (read-out: Cyp IC50 (μM) 2C19); under 5 µM in data set [4] (read-out: Cyp IC50 (μM) 2C9); over 10 µM in data set [5]; under 5 µM in data set [6] (setting [8]); under 5 µM in data set [7] (setting [9]).

In the case of `Fc1cc(Cc2c[nH]c3ncc(Cl)cc23)cnc1NCc1ccc(C(F)(F)F)nc1` [Compound P-2172, [5-(5-Chloro-1H-pyrrolo[2,3-b]pyridin-3-ylmethyl)-3-fluoro-pyridin-2-yl]-(6-trifluoromethyl-pyridin-3-ylmethyl)-amine], the “turbidity threshold (L, M, H) 1.4” value in data set [1] is “H (high solubility if the threshold concentration is >250 μM)”. The “turbidity threshold (L, M, H) 4.5” value in data set [1] is given as “L (low solubility if the threshold concentration is <31.3 μM)”. Further, the “turbidity threshold (L, M, H) 6.8” value in data set [1] is reported as “L (low solubility if the threshold concentration is <31.3 μM)”. Moreover, in data set [1], the “turbidity threshold (L, M, H) 7.4” value was “L (low solubility if the threshold concentration is <31.3 μM)”. Besides, the IC50 was over 10 µM in data set [2]; under 5 µM in data set [3] (read-out: Cyp IC50 (μM) 2C19); 5 to 10 µM in data set [4]; over 10 µM in data set [5]; over 10 µM in data set [6] (setting [8]).

Consider `CCS(=O)(=O)Nc1ccccc1CNc1ccc(Cc2c[nH]c3ncc(C)cc23)c(F)n1` [Compound P-2198, Ethanesulfonic acid (2-{[6-fluoro-5-(5-methyl-1H-pyrrolo[2,3-b]pyridin-3-ylmethyl)-pyridin-2-ylamino]-methyl}-phenyl)-amide], for which the “turbidity threshold (L, M, H) 1.4” value in data set [1] was “M (moderate solubility if the threshold concentration is 31.3 μM to 250 μM)”. The “turbidity threshold (L, M, H) 4.5” value in data set [1] is on record as “L (low solubility if the threshold concentration is <31.3 μM)”. Besides, the “turbidity threshold (L, M, H) 6.8” value in data set [1] is “L (low solubility if the threshold concentration is <31.3 μM)”. The “turbidity threshold (L, M, H) 7.4” value in data set [1] is “L (low solubility if the threshold concentration is <31.3 μM)”. In addition, the IC50 was over 10 µM in data set [2]; under 5 µM in data set [3] (read-out: Cyp IC50 (μM) 2C19); 5 to 10 µM in data set [4]; over 10 µM in data set [5]; under 5 µM in data set [6] (setting [8]).

What is called IC50 is the midpoint of a concentration-inhibition curve.
